Entries after “also recorded” stand apart in the source; their conditions may differ.
Tests used:
[1] = test system: platinated DNA in HCT116 cells; assay: Cisplatin/condensate co-immunofluorescence; format: cell-based, human; settings: HCT116, 50 μM cisplatin for 6 hours
Procedure: HCT116 cells were plated in 24-well plate at 50 k cells per well to yield 100 k cells after 21 hours (doubling time of HCTs). Cells were permeabilized using a solution of Tx100 in media at 0.55 pmol/cell for 12 minutes at 37° C. Cells were then washed with 500 ul media and treated with 500 ul of 50 uM cisplatin in media for 6 hours. After 6 hours, the cells were washed once with room temperature PBS and then fixed with 500 uL 4% formaldehyde in PBS for 12 min at room temperature. The cells were then washed 3 more times with PBS. Coverslips were put into a humidifying chamber or stored at 4° C. in PBS. Permeabilization of cells were performed using 0.5% Triton X-100 (Sigma Aldrich, X100) in PBS for 10 minutes followed by three PBS washes. Cells were blocked with 4% IgG-free Bovine Serum Albumin, BSA, (VWR, 102643-516) for 30 minutes and the primary antibody was added at a concentration of 1:500 in PBS for 4-16 hours. […]
For the analysis of co-immunofluorescence data, custom python scripts were written to both process and analyze the 3D image data from IF and DAPI channels. Nuclei were detected using the Triangle thresholding method and a nuclear mask was applied the IF channels. […] Percentage of cisplatin overlap was calculated by the number of defined nuclear cisplatin puncta that overlapped with the protein of interest puncta divided by the total number of nuclear cisplatin puncta.

[2] = test system: nuclear condensates in HCT116 cells; assay: Cisplatin treatment followed by live cell imaging, condensate score; format: cell-based, human; settings: HCT116, 50 μM cisplatin, up to 12 hours
Procedure: HCT116 cells with the indicated GFP knock-in were plated at 35 k per well of a glass bottom 8-well chamber slide. Following incubation at 37° C. overnight, cells were treated with 50 uM cisplatin in DMEM or a 1:1000 dilution of DMSO for 12 hours. […] For representative images of each of the six tagged lines treated with vehicle or 50 μM cisplatin, cells were imaged on the Zeiss LSM 880 confocal microscope with Airyscan detector with 63× objective at 37° C. Nuclei were segmented from images of treated cells by custom Python scripts using the scikit-image, open-cv, and […] Python packages. Nuclei were segmented by median filter, thresholding, separated by the watershed algorithm, and labeled by the scikit-image label function. […] A grey-level co-occurrence matrix (GLCM) was then generated from the projected signal, and the 'correlation' texture property from the GLCM was calculated per nucleus. One-way ANOVA followed by Sidak's multiple comparisons test was performed on the correlation values across conditions using GraphPad Prism version 8.2.0 for Mac (www.graphpad.com). Finally, to derive the condensation score, these values were subtracted from 1.

[3] = biological target: T1, MED1 (Homo sapiens, UniProt Q15648); assay: In vitro droplet assay, small molecule partitioning into MED1 condensates; format: binding; settings: confocal fluorescence; Example 2: 125 mM NaCl, 10% PEG, 10 μM protein; fluorescent or fluorescently labeled drug
T1 construct: MED1—amino acids 600-1581; 6xHis (N); made in house; host or cells: LOBSTR cells (E. coli)
T1 sequence (Q15648 600-1581): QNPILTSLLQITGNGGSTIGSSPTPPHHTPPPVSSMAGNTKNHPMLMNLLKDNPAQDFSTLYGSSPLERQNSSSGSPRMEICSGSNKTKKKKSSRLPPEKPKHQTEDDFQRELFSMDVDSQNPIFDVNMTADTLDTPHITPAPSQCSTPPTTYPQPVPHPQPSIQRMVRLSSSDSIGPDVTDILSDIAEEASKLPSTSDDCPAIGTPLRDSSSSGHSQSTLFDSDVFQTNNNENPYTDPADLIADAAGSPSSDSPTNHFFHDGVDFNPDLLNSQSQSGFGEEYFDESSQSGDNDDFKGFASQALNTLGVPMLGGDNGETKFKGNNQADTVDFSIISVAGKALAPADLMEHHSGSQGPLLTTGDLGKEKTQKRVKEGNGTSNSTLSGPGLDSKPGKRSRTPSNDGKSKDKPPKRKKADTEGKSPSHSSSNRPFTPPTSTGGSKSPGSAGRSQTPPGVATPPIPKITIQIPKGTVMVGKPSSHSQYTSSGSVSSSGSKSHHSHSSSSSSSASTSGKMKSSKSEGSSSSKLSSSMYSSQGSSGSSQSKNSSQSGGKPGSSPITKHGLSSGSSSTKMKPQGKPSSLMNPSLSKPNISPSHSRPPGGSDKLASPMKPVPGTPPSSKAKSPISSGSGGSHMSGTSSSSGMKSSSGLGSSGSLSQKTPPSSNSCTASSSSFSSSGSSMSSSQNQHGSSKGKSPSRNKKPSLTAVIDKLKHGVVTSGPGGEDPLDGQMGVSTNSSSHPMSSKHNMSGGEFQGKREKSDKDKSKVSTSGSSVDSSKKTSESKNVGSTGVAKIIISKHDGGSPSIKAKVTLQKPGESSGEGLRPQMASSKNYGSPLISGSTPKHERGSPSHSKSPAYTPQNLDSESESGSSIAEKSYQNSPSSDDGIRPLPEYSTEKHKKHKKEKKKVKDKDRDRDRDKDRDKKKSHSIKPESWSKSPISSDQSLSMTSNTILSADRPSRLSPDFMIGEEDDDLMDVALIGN
Procedure: Recombinant BFP, GFP, or mCherry fusion proteins were concentrated and desalted to an appropriate protein concentration and 125 mM NaCl using Amicon Ultra centrifugal filters (30K MWCO, Millipore). Recombinant protein was added too. […] The protein solution was immediately loaded onto glass bottom 384 well plate (Cellvis P384-1.5H-N) and imaged with an Andor confocal microscope with a 150× objective. Unless indicated, images presented are of droplets settled on the glass coverslip.
Drug and small molecule concentrations used in the droplet experiments are as follows:
To analyze in vitro droplet experiments, custom Python scripts using the scikit-image package were written to identify droplets and characterize their size, shape and intensity. Droplets were segmented from average images of captured channels on various criteria: (1) an intensity threshold that was three s.d. above the mean of the image; (2) size thresholds (20 pixel minimum droplet size); and (3) a minimum circularity (circularity=4π·areaperimeter2) (circularity=4π·areaperimeter2) of 0.8 (1 being a perfect circle). After segmentation, mean intensity for each droplet was calculated while excluding pixels near the phase interface, and background-corrected by subtracting intensity of dark images of droplet formation buffer only. Droplets identified in the channel of the fluorescent protein from ten independent fields of view were quantified for each experiment. The maximum intensity of signal within the droplets was calculated for each channel, the maximum intensity in the drug channel was termed “maximum drug intensity”. To obtain the intensity of drug or dye alone in the diffuse state (termed “diffuse drug intensity”), the compound was added to droplet formation buffer at same concentration used in the droplet assay. This was then imaged on a confocal fluorescent microscope. The resulting image was processed in FIJI to obtain the fluorescent intensity of the field. To obtain the fluorescent intensity of protein droplets that bleed through in the drug channel (termed “background intensity”) protein droplets were imaged in the fluorescent channel in which the drug fluoresces and processed as above to obtain the average maximum intensity within the droplet across 10 images. The enrichment ratio was obtained by the following formula [(maximum drug intensity)−(background intensity)]/(diffuse drug intensity). The box plots show the distributions of all droplets. Each dot represents an individual droplet.

[4] = test system: super-enhancers in Hela cells; settings: cisplatin treated Hela cells, published data (41); cited from earlier work

SMILES: N.N.[Cl][Pt][Cl] [cisplatin]
- colocalization of platinated DNA with nuclear condensates [1]: frequently colocalized with MED1 condensates, but not with HP1α or FIB1 condensates
- effect on nuclear condensates in live cells [2]: selective and progressive reduction in MED1 condensates; also recorded: Dissolution of MED1 condensates
- effect on nuclear condensates in live cells ([2]; listed as Cisplatin): specifically disrupts MED1 and BRD4 condensates
- partitioning / incorporation into MED1 droplets [3]: selectively concentrated in MED1 droplets
- location of cisplatin-modified DNA (platinated-DNA pull-down sequencing) [4]: preferentially occurs at super-enhancers
